According to US20110039770A1, “INHIBITORS OF PROTEIN KINASE C ISOFORMS AND USES THEREOF” (PHARMAGAP INC., priority 2005, published 2011):
Where a SMILES comes first, the peptide text is derived from it. The star is where a group is joined. PNA(A) = NCCN(CC(=O)*)C(=O)Cn1cnc2c(N)ncnc21

Columns and labels:
PKC-β = biological target: T1, PKC-β (Homo sapiens, UniProt P05771); test: Competition of PRE with PKC-β antibody binding, Protocol A, IMR-32 lysate
T1 construct: PRE 2 and PRE 3 in IMR-32 Neuroblastoma Cells: Protocol A; endogenous in cells; host or cells: IMR-32 human neuroblastoma cells
Experimental: (§1) Cell lysates from either IMR-32 (human neuroblastoma) cells or C6Cx43 cells (rat glioma transfected cells overexpressing connexin 43) were obtained using standard protocols and the proteins of the lysate were separated by SDS PAGE electrophoresis and electrotransferred onto a nitrocellulose membrane. The membrane was incubated for 30 minutes in blocking buffer (TBST) containing the test peptide at either 5× or 20× the concentrations of the primary antibody. A primary polyclonal antibody specific for PKC-α (Santa Cruz Biotechnology, Inc., CA) was then added (15 μg/ml) and the membrane incubated for a further 45 minutes. Finally, the primary antibody was detected with a secondary antibody conjugated to alkaline phosphatase using standard procedures. The intensity of the band corresponding to PKC-α was assessed by scanning and densitometry using the Gel-Pro software (Media Cybernetics) to obtain relative band intensities (average of 3 replicas). Control assays were conducted as described above except that blocking buffer without peptide was used.
Peptides PRE 1, PRE 2 and PRE 3 (see Table 4) were tested for their ability to interfere with the binding of a PKC-β-specific polyclonal antibody (Santa Cruz Biotechnology, Inc.) to PKC-β using the general protocol described in Example 1. […] It is worth noting in this regard that PKC-α and PKC-β belong to the same sub-group of PKCs (cPKCs).

PKC-ε = test: Competition of PRE with PKC-ε antibody binding, Protocol B, IMR-32; design: species or system human
Experimental: Peptides PRE 2, PRE 3 and PRE 4 (see Table 4) were tested for their ability to interfere with the binding of isoform-specific polyclonal antibodies (Santa Cruz Biotechnology, Inc.) to […] using the general protocol described in Example 3. Two bands, representing alternate splicing variants of PKC-ε, were identified on the Western blot using this anti-PKC-ε antibody.

PKC-α = PKC-α (Homo sapiens, UniProt P17252); test: Competition of PRE with PKC-α antibody binding on Western blot, Protocol A, IMR-32 lysate; design: endogenous PKC-α in (A) untreated human neuroblastoma (IMR-32) cells; endogenous in cells; host or cells: IMR-32 human neuroblastoma cells; conditions: IMR-32 cells
Experimental: The ability of the PRE 1, 2 and 3 (see Table 3 above) to interfere with the binding of a PKC-α-specific polyclonal antibody to PKC-α was determined using the following protocol.
as §1
The results are expressed as relative band intensity and as a percentage of the intensity of the corresponding band in the control assay (“Relative intensity (%)”). “% inhibition” relates to the percentage of the PKC-α band that is inaccessible to the antibody.

MDA MB231 cells = test: Matrigel invasion/migration with EGF as chemoattractant; type: cell-based, human; conditions: 24 h; 10 ng/ml EGF
Experimental: Experiments were conducted to investigate the effect of compound TIM 10 (5 mM dose) on migration of human breast cancer cells (MDA MB231) with and without EGF (10 ng/ml) as a chemo-attractant. A standard a two-chamber culture system (BD BIOcoat™ Matrigel™ Invasion Chamber; BD Biosciences Clont, Discovery labware, Immunocytometry system Pharmingen) was employed for these experiments. Control chambers used in the following experiment are similar to the invasion chambers except that no Matrigel matrix is present, thus allowing cells to freely reach the lower membrane surface through the membrane pores.
The ability of compound TIM 10 to inhibit invasion/migration of MDA MB231 cells in the presence of the chemoattractant EGF was measured as described above using EGF 10 ng/mL as the chemoattractant.

[1] = tested on: peripheral blood lymphocytes; test: Peripheral blood lymphocyte survival and blastogenic response to mitogens; type: cell-based; conditions: primary lymphocytes of pigs, mice and human

T1 sequence (P05771 whole entry): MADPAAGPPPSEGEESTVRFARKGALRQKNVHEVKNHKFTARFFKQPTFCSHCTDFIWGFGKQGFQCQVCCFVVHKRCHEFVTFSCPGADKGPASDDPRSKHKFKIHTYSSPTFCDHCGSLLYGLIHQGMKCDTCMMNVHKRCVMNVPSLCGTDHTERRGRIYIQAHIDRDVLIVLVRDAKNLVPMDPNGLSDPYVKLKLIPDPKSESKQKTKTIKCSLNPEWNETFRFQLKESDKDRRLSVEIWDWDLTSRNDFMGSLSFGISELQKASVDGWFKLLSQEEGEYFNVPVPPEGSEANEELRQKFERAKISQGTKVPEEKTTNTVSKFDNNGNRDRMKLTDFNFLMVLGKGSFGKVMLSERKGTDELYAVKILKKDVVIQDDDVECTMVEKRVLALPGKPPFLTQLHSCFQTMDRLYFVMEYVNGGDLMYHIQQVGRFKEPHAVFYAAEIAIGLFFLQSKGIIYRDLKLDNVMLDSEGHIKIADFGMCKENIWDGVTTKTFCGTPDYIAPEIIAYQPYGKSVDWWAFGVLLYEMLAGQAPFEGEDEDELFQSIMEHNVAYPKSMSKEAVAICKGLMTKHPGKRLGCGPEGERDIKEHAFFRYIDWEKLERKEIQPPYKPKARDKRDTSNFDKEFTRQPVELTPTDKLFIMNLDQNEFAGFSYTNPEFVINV

| Band Intensity (PKC-β; 75 μg) | Inhibition (%) (PKC-β; 75 μg) | Band Intensity (PKC-β; 300 μg) | Inhibition (%) (PKC-β; 300 μg) | Inhibition (%) (PKC-ε; 20 μg, PKC-ε Band 1) | Relative Intensity (%) (PKC-ε; 20 μg, PKC-ε Band 1) | Inhibition (%) (PKC-ε; 20 μg, PKC-ε Band 2) | Relative Intensity (%) (PKC-ε; 20 μg, PKC-ε Band 2) | Inhibition (%) (PKC-ε; 50 μg, PKC-ε Band 1) | Relative Intensity (%) (PKC-ε; 50 μg, PKC-ε Band 1) | Inhibition (%) (PKC-ε; 50 μg, PKC-ε Band 2) | Relative Intensity (%) (PKC-ε; 50 μg, PKC-ε Band 2) | Inhibition (%) (PKC-ε; 100 μg, PKC-ε Band 1) | Relative Intensity (%) (PKC-ε; 100 μg, PKC-ε Band 1) | Inhibition (%) (PKC-ε; 100 μg, PKC-ε Band 2) | Relative Intensity (%) (PKC-ε; 100 μg, PKC-ε Band 2) | Band Intensity (PKC-α; 75 μg) | Band Intensity (PKC-α; 300 μg) | Compound | further results |
| --- | --- | --- | --- | --- | --- | --- | --- | --- | --- | --- | --- | --- | --- | --- | --- | --- | --- | --- | --- |
| 1.900 | 0.0 | 1.900 | 0.0 | 99.0 | 0.12 | 100.0 | 0.0 | 100.0 | 0.0 | 100.0 | 0.0 | 100.0 | 0.0 | 100.0 | 0.0 | 0.889 | 0.922 | CC[C@H](C)[C@H](NC(=O)[C@H](CO)NC(=O)[C@@H](NC(=O)CNC(=O)[C@@H](NC(=O)[C@H](CC(C)C)NC(=O)[C@H](CC(N)=O)NC(=O)[C@H](CCC(N)=O)NC(=O)[C@H](C)NC(=O)[C@H](CC(=O)O)NC(=O)CNC(=O)CNC(=O)[C@H](CCCCN)NC(=O)[C@@H](NC(=O)[C@H](CCC(=O)O)NC(=O)[C@H](CCC(N)=O)NC(=O)[C@@H](NC(=O)CNC(=O)[C@H](CCCCN)NC(=O)[C@H](C)NC(C)=O)[C@@H](C)CC)C(C)C)[C@@H](C)CC)[C@@H](C)CC)C(N)=O [PRE 3] (Ac-AKGIQEVKGGDAQNLIGISI-NH2) | remaining activity at 0.075 mg (PKC-β; 75 μg, read-out: Relative Intensity (%)): 102%; remaining activity at 0.3 mg (PKC-β; 300 μg, read-out: Relative Intensity (%)): 102%; Band Intensity (PKC-β; 600 μg): 1.847; Inhibition (%) (PKC-β; 600 μg): 0.0%; remaining activity at 0.6 mg (PKC-β; 600 μg, read-out: Relative Intensity (%)): 99.6% |
| – | – | – | – | – | – | – | – | – | – | – | – | – | – | – | – | – | – | CC[C@H](C)[C@H](NC(=O)[C@H](CO)NC(=O)[C@@H](NC(=O)CNC(=O)[C@@H](NC(=O)[C@H](CC(C)C)NC(=O)[C@H](CC(N)=O)NC(=O)[C@H](CCC(N)=O)NC(=O)[C@H](C)NC(=O)[C@H](CC(=O)O)NC(=O)[C@H](CCCCN)NC(=O)CNC(=O)CNC(=O)CNC(=O)CNC(=O)CNC(=O)CNC(=O)CNC(=O)[C@H](CC(C)C)NC(=O)[C@H](CCCNC(=N)N)NC(=O)[C@H](Cc1ccccc1)NC(=O)[C@H](CCCCNC(=O)CN(CCN)C(=O)Cn1cnc2c(N)ncnc21)NC(=O)[C@H](CCCNC(=N)N)NC(=O)[C@H](CCCNC(=N)N)NC(=O)[C@H](Cc1ccccc1)NC(C)=O)[C@@H](C)CC)[C@@H](C)CC)C(N)=O [TIM 10] (Ac-FRRK(PNA(A))FRLGGGGGGGKDAQNLIGISI-NH2) | inhibition in cell growth (MDA MB231 cells): 25%; apoptosis of peripheral blood lymphocytes [1]: do not induce apoptosis; blastogenic response to mitogens [1]: do not drastically limit the blastogenic response |
| 0.825 | 28.9 | 0.528 | 54.5 | – | – | – | – | – | – | – | – | – | – | – | – | 1.040 | 0.771 | RRKKGGKDFVVKR [PRE 1] | Relative Intensity (%) (PKC-β; 75 μg): 71.1%; Relative Intensity (%) (PKC-β; 300 μg): 45.5%; Inhibition (%) (PKC-α; 75 μg): 50.2%; Relative Intensity (%) (PKC-α; 75 μg): 49.8%; Inhibition (%) (PKC-α; 300 μg): 63.1%; Relative Intensity (%) (PKC-α; 300 μg): 36.9% |
| – | – | – | – | 42.9 | 57.1 | 46.6 | 53.33 | 100.0 | 0.0 | 100.0 | 0.0 | 100.0 | 0.0 | 100.0 | 0.0 | – | – | CC[C@H](C)[C@H](NC(=O)[C@H](CO)NC(=O)[C@@H](NC(=O)CNC(=O)[C@@H](NC(=O)[C@H](CC(C)C)NC(=O)[C@H](CC(N)=O)NC(=O)[C@H](CCC(N)=O)NC(=O)[C@H](C)NC(=O)[C@H](CC(=O)O)NC(=O)[C@H](CCCCN)NC(C)=O)[C@@H](C)CC)[C@@H](C)CC)C(N)=O [PRE 4, Ac-KDAQNLIGISI-NH2] (Ac-KDAQNLIGISI-NH2) | – |
